# Results taken from patent publication US20260130933A1, “PHARMACEUTICAL COMPOSITION FOR PREVENTION OR TREATMENT OF NEPHROPATHY AND/OR DIABETES MELLITUS, COMPRISING ENAVOGLIFLOZIN” (DAEWOONG PHARMACEUTICAL CO., LTD., priority 2022, published 2026).
# Assay: Example 3: phase 3 trial, enavogliflozin 0.3 mg vs dapagliflozin 10 mg once a day for 24 weeks added to metformin and gemigliptin in patients with type 2 diabetes (same endpoints, rescue drug)
# Type: in vivo, human
# Description: 1) when Metformin (≥1,000 mg/Day) was Administered at a Constant Dose for at Least 8 Weeks Prior to Pre-Visit (Pre-Screening) • Metformin (≥1,000 mg/day) and gemigliptin (50 mg/day) were co-administered during the 8-week stabilization period. […] 4) when Metformin (≥1,000 mg/Day) and Gemigliptin (50 mg/Day) were Co-Administered at Constant Doses for at Least 8 Weeks Prior to Pre-Visit (Prescreening) • Without a separate stabilization period, Pre-visit (pre-screening) was Visit 1 (screening).
# Subjects who met the inclusion/exclusion criteria continued to receive metformin and gemigliptin while receiving a placebo of the clinical trial drug in a single-blind (subject-blinded) state for a 2-week run-in period.
# Here, the randomized subjects were stratified according to the administration therapy (co-administration with two or less agents (one or two agents) or three or more agents) of a conventional hypoglycemic agent (before washout of another hypoglycemic agent) within 24 weeks prior to obtaining written informed consent and by an HbA1c value (<8% or ≥8%) at Visit 1 (screening) measured in the central laboratory.
# The randomized subjects were administered two tablets of the clinical trial drug corresponding to each administration group once a day, and then visited the institution at weeks 6, 12, 18, and 24 during the 24-week administration period to conduct efficacy and safety assessments. In addition, during the clinical trial period, they were instructed to exercise regularly and control their diet without changing their daily life patterns.
# • 1) Change in HbA1c at week 24 after administration of clinical trial drug compared to Visit 2 (randomization)
# • 1) Change in HbA1c at each time point of weeks 6, 12, and 18 after administration of clinical trial drug compared to Visit 2 (randomization) • 2) Change in FPG at each time point of weeks 6, 12, 18, and 24 after administration of clinical trial drug compared to Visit 2 (randomization) • 3) Proportion of subjects achieving HbA1c<7% at each time point of weeks 6, 12, 18, and 24 after administration of clinical trial drug • 4) Proportion of subjects achieving HbA1c<6.5% at each time point of weeks 6, 12, 18, and 24 after administration of clinical trial drug • 5) Proportion of subjects achieving therapeutic response (HbA1c change (HbA1c at Visit 2—HbA1c at each evaluation time point)>0.5% or HbA1c<7% at each evaluation time point compared to Visit 2 (randomization)) at each time point of weeks 6, 12, 18, and 24 after administration of clinical trial drug • 6) Proportion of subjects achieving therapeutic response (HbA1c change (HbA1c at Visit 2—HbA1c at each evaluation time point)>0.7% or HbA1c<7% at each evaluation time point compared to Visit 2 (randomization)) at each time point of weeks 6, 12, 18, and 24 after administration of clinical trial drug • 7) Proportion of subjects achieving therapeutic response (HbA1c change (HbA1c at Visit 2—HbA1c at each evaluation time point)>1% or HbA1c<7% at each evaluation time point compared to Visit 2 (randomization)) at each time point of weeks 6, 12, 18, and 24 after administration of clinical trial drug
# [1] = week 6, per-protocol set, enavogliflozin 0.3 mg, dapagliflozin 10 mg
# [2] = week 12, modified per-protocol set 1, enavogliflozin 0.3 mg, dapagliflozin 10 mg
# [3] = week 12, modified per-protocol set 2
# [4] = week 12, modified per-protocol set 2, enavogliflozin 0.3 mg, dapagliflozin 10 mg
# [5] = week 12, per-protocol set, enavogliflozin 0.3 mg, dapagliflozin 10 mg
smiles,measurement,setting,value
"CCOc1ccc(Cc2cc([C@@H]3O[C@H](CO)[C@@H](O)[C@H](O)[C@H]3O)ccc2Cl)cc1 [Dapagliflozin, reference compound]","HbA1c, Median",[1],6.96%
same,"Subjects achieving HbA1c target of <6.5%, (%)",[1],15.57%
same,"Subjects achieving HbA1c target of <7%, %",[1],51.64%
same,"body weight, Median",[1],63.90 kg
same,"Subjects achieving therapeutic glycemic response 1, %","week 6, per-protocol set, response 1 = HbA1c change >0.5% or HbA1c <7%, enavogliflozin 0.3 mg, dapagliflozin 10 mg",81.97%
same,"Subjects achieving therapeutic glycemic response 2, %","week 6, per-protocol set, response 2 = HbA1c change >0.7% or HbA1c <7%, enavogliflozin 0.3 mg, dapagliflozin 10 mg",76.23%
same,"Subjects achieving therapeutic glycemic response 3, %","week 6, per-protocol set, response 3 = HbA1c change >1% or HbA1c <7%, enavogliflozin 0.3 mg, dapagliflozin 10 mg",63.93%
same,"FPG change from baseline, LS mean (SE)",week 12,−24.42(1.50) mg/dL
same,"HDL-C change from baseline, LS mean (SE)",week 12,2.84(0.60) mg/dL
same,"HOMA-β change from baseline, LS mean (SE)",week 12,5.23(1.90)
same,"HbA1c change from baseline, LS mean (SE)",week 12,−0.83(0.04) % p
same,"LDL-C change from baseline, LS mean (SE)",week 12,2.71(1.75) mg/dL
same,"UACR change from baseline, LS mean (SE)",week 12,−11.76(4.47) g/kg
same,"UGCR change from baseline, LS mean (SE)",week 12,44.84(2.02) mg/mg
same,"adiponectin change from baseline, LS mean (SE)",week 12,0.70(0.33) μg/mL
same,"body weight change from baseline, LS mean (SE)",week 12,−2.71(0.19) kg
same,"diastolic blood pressure change from baseline, LS mean (SE)",week 12,−2.26(0.66) mmHg
same,"fasting C-peptide change from baseline, LS mean (SE)",week 12,−0.07(0.02) ng/ml
same,"leptin change from baseline, LS mean (SE)",week 12,−1.69(0.47) ng/ml
same,"systolic blood pressure change from baseline, LS mean (SE)",week 12,−5.06(0.85) mmHg
same,"total cholesterol change from baseline, LS mean (SE)",week 12,5.40(1.98) mg/dL
same,"triglyceride change from baseline, LS mean (SE)",week 12,−12.02(5.12) mg/dL
same,"Change from baseline in HDL-C, ANCOVA LS mean",[2],2.84 mg/dL
same,"Change from baseline in HDL-C, Mean",[2],2.65 mg/dL
same,"Change from baseline in HDL-C, Median",[2],2.00 mg/dL
same,"Change from baseline in LDL-C, ANCOVA LS mean",[2],2.71 mg/dL
same,"Change from baseline in LDL-C, Mean",[2],2.45 mg/dL
same,"Change from baseline in LDL-C, Median",[2],4.00 mg/dL
same,"Change from baseline in total cholesterol, ANCOVA LS mean",[2],5.40 mg/dL
same,"Change from baseline in total cholesterol, Mean",[2],4.61 mg/dL
same,"Change from baseline in total cholesterol, Median",[2],6.00 mg/dL
same,"Change from baseline in triglycerides, ANCOVA LS mean",[2],12.02 mg/dL
same,"Change from baseline in triglycerides, Mean",[2],-16.03 mg/dL
same,"Change from baseline in triglycerides, Median",[2],-6.00 mg/dL
same,"Fasting HDL-C, Mean",[2],50.08 mg/dL
same,"Fasting HDL-C, Median",[2],49.00 mg/dL
same,"Fasting LDL-C, Mean",[2],79.86 mg/dL
same,"Fasting LDL-C, Median",[2],72.50 mg/dL
same,"Fasting total cholesterol, Mean",[2],148.41 mg/dL
same,"Fasting triglycerides, Mean",[2],116.46 mg/dL
same,"Fasting triglycerides, Median",[2],104.50 mg/dL
same,"fasting Total cholesterol, Median",[2],140.50 mg/dL
same,"Change from baseline in diastolic blood pressure, ANCOVA LS mean",[3],−2.26 mmHg
same,"Change from baseline in diastolic blood pressure, Mean",[3],−1.88 mmHg
same,"Change from baseline in diastolic blood pressure, Median",[3],−1.00 mmHg
same,"Diastolic blood pressure, Mean",[3],71.99 mmHg
same,"Diastolic blood pressure, Median",[3],72.00 mmHg
same,"Change from baseline in systolic blood pressure, ANCOVA LS mean",[4],−5.06 mmHg
same,"Change from baseline in systolic blood pressure, Mean",[4],−4.43 mmHg
same,"Change from baseline in systolic blood pressure, Median",[4],−4.00 mmHg
same,"Systolic blood pressure, Mean",[4],119.51 mmHg
same,"Systolic blood pressure, Median",[4],120.00 mmHg
same,"Adiponectin, Mean","week 12, per-protocol set",6.97 µg/mL
same,"Adiponectin, Median","week 12, per-protocol set",6.27 µg/mL
same,"Change from baseline in HOMA-IR, ANCOVA LS mean","week 12, per-protocol set",−1.05
same,"Change from baseline in HOMA-IR, Mean","week 12, per-protocol set",−1.06
same,"Change from baseline in HOMA-IR, Median","week 12, per-protocol set",−0.76
same,"Change from baseline in HOMA-β, ANCOVA LS mean","week 12, per-protocol set",5.23
same,"Change from baseline in HOMA-β, Mean","week 12, per-protocol set",4.70
same,"Change from baseline in HOMA-β, Median","week 12, per-protocol set",3.50
same,"Change from baseline in UACR, ANCOVA LS mean","week 12, per-protocol set",-11.76 g/kg
same,"Change from baseline in UACR, Mean","week 12, per-protocol set",-7.42 g/kg
same,"Change from baseline in UACR, Median","week 12, per-protocol set",0.20 g/kg
same,"Change from baseline in UGCR, ANCOVA LS mean","week 12, per-protocol set",44.84 mg/mg
same,"Change from baseline in UGCR, Mean","week 12, per-protocol set",43.19 mg/mg
same,"Change from baseline in UGCR, Median","week 12, per-protocol set",41.69 mg/mg
same,"Change from baseline in adiponectin, ANCOVA LS mean","week 12, per-protocol set",0.70 µg/mL
same,"Change from baseline in adiponectin, Mean","week 12, per-protocol set",0.63 µg/mL
same,"Change from baseline in adiponectin, Median","week 12, per-protocol set",0.43 µg/mL
same,"Change from baseline in leptin, ANCOVA LS mean","week 12, per-protocol set",-1.69 ng/mL
same,"Change from baseline in leptin, Mean","week 12, per-protocol set",-1.82 ng/mL
same,"Change from baseline in leptin, Median","week 12, per-protocol set",-0.96 ng/mL
same,"HOMA-IR (insulin resistance), Mean","week 12, per-protocol set",1.80
same,"HOMA-IR (insulin resistance), Median","week 12, per-protocol set",1.55
same,"HOMA-β (beta-cell function), Mean","week 12, per-protocol set",45.17
same,"HOMA-β (beta-cell function), Median","week 12, per-protocol set",38.20
same,"Leptin, Mean","week 12, per-protocol set",9.03 ng/mL
same,"Leptin, Median","week 12, per-protocol set",7.69 ng/mL
same,"UACR, Mean","week 12, per-protocol set",27.28 g/kg
same,"UACR, Median","week 12, per-protocol set",11.80 g/kg
same,"UGCR, Mean","week 12, per-protocol set",44.72 mg/mg
same,"UGCR, Median","week 12, per-protocol set",41.80 mg/mg
same,"Body weight, Mean",[5],64.64 kg
same,"Change from baseline in FPG, ANCOVA LS mean",[5],-24.42 mg/dL
same,"Change from baseline in FPG, Mean",[5],-25.28 mg/dL
same,"Change from baseline in FPG, Median",[5],-20.00 mg/dL
same,"Change from baseline in HbA1c, ANCOVA LS mean",[5],−0.83 % p
same,"Change from baseline in HbA1c, Mean",[5],−0.87 % p
same,"Change from baseline in HbA1c, Median",[5],−0.85 % p
same,"Change from baseline in body weight, ANCOVA LS mean",[5],-2.71 kg
same,"Change from baseline in body weight, Mean",[5],-2.58 kg
same,"Change from baseline in body weight, Median",[5],-2.50 kg
same,"Change from baseline in fasting C-peptide, ANCOVA LS mean",[5],-0.07 ng/mL
same,"Change from baseline in fasting C-peptide, Mean",[5],-0.06 ng/mL
same,"Change from baseline in fasting C-peptide, Median",[5],-0.03 ng/mL
same,"FPG, Mean",[5],115.24 mg/dL
same,"FPG, Median",[5],112.00 mg/dL
same,"Fasting C-peptide, Mean",[5],0.63 ng/mL
same,"Fasting C-peptide, Median",[5],0.60 ng/mL
same,"HbA1c, Mean",[5],6.96%
same,"HbA1c, Median",[5],6.84%
same,"Subjects achieving HbA1c target of <6.5%, (%)",[5],17.07%
